Molecules are shown by their SMILES.

Data set [1] is filed under the species Mus musculus. The experiment in a line: Inhibition of Hedgehog signaling pathway in mouse C3H10T1/2 cells assessed as reduction in oxysterol-induced Gli1 mRNA expression at 5 uM after 24 hrs by q-PCR analysis relative to oxysterol alone. The data set is classed as cell-based.
In data set [2] the target is T1, Cyp24A1 mRNA (readout of VDR activation) (Mus musculus, UniProt P48281).
T1 sequence (P48281 whole entry): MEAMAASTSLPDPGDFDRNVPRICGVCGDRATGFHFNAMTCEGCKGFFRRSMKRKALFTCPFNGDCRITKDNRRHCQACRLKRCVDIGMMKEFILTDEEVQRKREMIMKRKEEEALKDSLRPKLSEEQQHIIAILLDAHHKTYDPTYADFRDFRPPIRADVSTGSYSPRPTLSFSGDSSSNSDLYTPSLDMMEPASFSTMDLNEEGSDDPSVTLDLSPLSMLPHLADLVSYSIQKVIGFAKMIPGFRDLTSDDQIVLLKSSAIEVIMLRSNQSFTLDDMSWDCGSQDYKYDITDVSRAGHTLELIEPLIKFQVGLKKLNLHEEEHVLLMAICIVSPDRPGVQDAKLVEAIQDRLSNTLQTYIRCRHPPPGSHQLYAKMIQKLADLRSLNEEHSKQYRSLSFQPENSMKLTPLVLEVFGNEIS
The experiment in a line: Activation of VDR in mouse C3H10T1/2 cells assessed as change in Cyp24A1 mRNA expression at 5 uM after 24 hrs by q-PCR analysis relative to control. Format: ADME, cell-based. To be noted: read-out: FC.

Data set [3] in a line: (§1) Inhibition of Hedgehog signaling pathway in mouse C3H10T1/2 cells assessed as reduction in oxysterol-induced Gli1 mRNA expression after 24 hrs by q-PCR analysis. The conditions noted are these: C3H 10T1/2, 24 h. The data set is classed as cell-based.
The species named for data set [4] is Mus musculus. The data set is described as §1. The data set is classed as cell-based.
Data set [5] can be described thus: Inhibition of Hedgehog signaling pathway in mouse ASZ001 cells assessed as reduction in oxysterol-induced Gli1 mRNA expression after 24 hrs by q-PCR analysis. Format: cell-based. To be noted: ASZ001, 24 h.
The target of data set [6] is T1, Cyp24A1 mRNA (readout of VDR activation). Briefly: Activation of VDR in mouse ASZ001 cells assessed as change in Cyp24A1 mRNA expression at 5 uM after 24 hrs by q-PCR analysis relative to control. The data set is classed as ADME, cell-based. To be noted: read-out: FC.

On to `CC(C)CCC[C@@H](C)[C@H]1CC[C@H]2[C@@H](OC(=O)c3cccc(O)c3)C[C@H](C3CCCCC3)C[C@]12C`, for which, in the data set filed under Mus musculus [1], the inhibition came to 92%. Also, the fold induction at 24 h, 5 µM in data set [2] came out at 2.8.

Regarding `C=C[C@H]1CC(=O)[C@@H]2CC[C@H]([C@H](C)CCCC(C)C)[C@@]2(C)C1`, the inhibition in the data set filed under Mus musculus [1] stood at 28%. Besides, the fold induction at 24 h, 5 µM in data set [2] was 19.

As to `CC(C)CCC[C@@H](C)[C@H]1CC[C@H]2[C@@H](OC(=O)c3cccc(O)c3)C[C@H](Cc3ccccc3)C[C@]12C`, the inhibition in the data set filed under Mus musculus [1] came out at 85%. In addition, the fold induction at 24 h, 5 µM in data set [2] is 3.6.

Consider `CC(C)CCC[C@@H](C)[C@H]1CC[C@H]2[C@@H](OC(=O)c3cccc(O)c3)C[C@H](c3ccccc3)C[C@]12C`, for which the inhibition in the data set filed under Mus musculus [1] was 71%. Moreover, in data set [2], the fold induction at 24 h, 5 µM is 2.3.

For `CC(C)CCC[C@@H](C)[C@H]1CC[C@H]2[C@@H](Nc3ccc(O)cc3)C[C@H](CCO)C[C@]12C`, the inhibition in the data set listed under Mus musculus [1] was 1.1%; in the data set listed under Mus musculus [4], “Dose-dependent effect”. Also, the results for the concentration for half-maximal inhibition (IC50) in data set [3] and in data set [5] were 2.7 µM and 1 µM, respectively. Further, the fold induction at 24 h, 5 µM turned out to be 7.2 in data set [2] and 2 in data set [6].

`C#CCCC(=O)OCC[C@H]1C[C@H](OC(=O)c2cccc(O)c2)[C@@H]2CC[C@H]([C@H](C)CCCC(C)C)[C@@]2(C)C1`: the inhibition is 16% in the data set filed under Mus musculus [1] and “Dose-dependent effect” in the data set listed under Mus musculus [4]. The half-inhibitory concentration (IC50) in data set [3] was 6.3 µM; in data set [5] it was 7.5 µM. The fold induction at 24 h, 5 µM in data set [2] turned out to be 4.8; in data set [6] it was 0.96.

As for `CC(C)CCC[C@@H](C)[C@H]1CC[C@H]2[C@@H](O)C[C@H](CCO)C[C@]12C`, the inhibition in the data set filed under Mus musculus [1] was 39%; in the data set listed under Mus musculus [4] it was “Dose-dependent effect”. For the same compound, in data set [3], the IC50 was determined as 4.7 µM. Further, in data set [2], the fold induction at 24 h, 5 µM was 17.

On to `CC[C@@H]1C[C@H](OC(=O)c2cccc(O)c2)[C@@H]2CC[C@H]([C@H](C)CCCC(C)C)[C@@]2(C)C1`, for which the inhibition in the data set filed under Mus musculus [1] was 2%; in the data set listed under Mus musculus [4] it was “Dose-dependent effect”. Moreover, the IC50 is 0.92 µM in data set [3] and 5.2 µM in data set [5]. Also, the fold induction at 24 h, 5 µM is 3.6 in data set [2] and 1.3 in data set [6].

For `CC(C)CCC[C@@H](C)[C@H]1CC[C@H]2[C@@H](OC(=O)c3cccc(O)c3)C[C@H](CCO)C[C@]12C`, the inhibition is 8.7% in the data set filed under Mus musculus [1] and “Dose-dependent effect” in the data set listed under Mus musculus [4]. Moreover, the 50% inhibitory concentration (IC50) is 2 µM in data set [3] and 4.1 µM in data set [5]. For the same compound, the fold induction at 24 h, 5 µM came out at 9 in data set [2] and 1.1 in data set [6].

The values are drawn from ChEMBL document CHEMBL4052810, “Synthesis and evaluation of vitamin D3 analogues with C-11 modifications as inhibitors of Hedgehog signaling” (Bioorg Med Chem Lett, 2017).
